# Measurements reported in patent US20100055169A1, “CATIONIC LIPIDS AND USES THEREOF” (ABBOTT LABORATORIES, priority 2008, published 2010).
# Legend:
# Type in all cases: physicochemical
# [1] = RiboGreen assay of siRNA encapsulation efficiency, in vivo formulations of Lipid-Based Particles; details: lipid:siRNA 25:1
# Method in brief: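 RiboGreen fluorescence (480/520 nm) quantifies siRNA before and after release from particles with ethanol, Triton X-100 or phenol/chloroform. Particles formed by ethanol-injection of lipid into pH 4.0 citrate buffer containing siRNA at 65 °C, diluted in PBS pH 7.4, diafiltered (100K) and sterile-filtered.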
# [2] = Particle sizing by dynamic light scattering (DynaPro plate reader), in vitro formulations; details: in vitro formulation b: Cationic lipid/PEG-cholesterol/DSPC/Chol 45/10/15/30 wt %, lipid:siRNA 25:1
# Description: The siRNA concentrations were measured using Quanti-iT RiboGreen RNA reagent (Molecular Probes, (R11490)). Vesicle sizes were characterized by dynamic light scattering with a DynaPro™ Plate Reader (Wyatt Technology) in 96-well half-area UV plate (Coring) after diluting the formulation sample (20 μL) in phosphate buffered saline (80 μL) at a pH of about 7-8. A 1% agarose gel-based assay was used for analyzing nuclease degradation and protection. Encapsulation efficiency (EE) was calculated using data obtained from a RiboGreen assay.
# Particle sizes and size distributions (PDI) were characterized by using dynamic light scattering (DLS). A DLS plate reader (Dynapro™, Wyatt Technology) was used for the DLS measurement. This DLS plate reader uses an 830 nm laser and the scattering angle is 158°. It also can control temperature from 4° C. to 70° C. A 96-well format was employed for the samples.
# Samples for DLS analysis were prepared by mixing 20 μL of each sample stock solution with 80 μL PBS directly in the 96-well plate (#3697, Corning). Sample mixing was accomplished using a microplate shaker (Orbis, Mikura Ltd.). Plates were read at 20° C. with an acquisition time of 50 seconds for each sample, and data was analyzed with Wyatt Technology's Dynamics V6 software. To rule out potential multiple scattering artifacts, a second plate at 4-fold reduced sample concentrations was independently prepared by mixing 5 μL stock solutions with 95 μL PBS. Under our experimental conditions the results at the two concentrations were very similar, and the final reported result for each sample represents the average of values obtained from the two plates.
# [3] = RiboGreen assay of siRNA encapsulation efficiency, in vitro formulations of Lipid-Based Particles; details: in vitro formulation b: Cationic lipid/PEG-cholesterol/DSPC/Chol 45/10/15/30 wt %, lipid:siRNA 25:1
# Method in brief: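 siRNA in pH 4.0 citrate buffer (20 mM, 0.2 mg/mL) mixed at 60 °C with an ethanolic lipid blend (cationic lipid, cholesterol, non-cationic lipid, PEG-lipid), then diluted with PBS pH 7.4. Encapsulation efficiency from RiboGreen fluorescence (480/520 nm) with siRNA released by ethanol, Triton X-100 or phenol/chloroform.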
compound,measurement,setting,value
"CCCCC/C=C\C/C=C\CCCCCCCCOCC(CCN1CCCC1)OCCCCCCCC/C=C\C/C=C\CCCCC (stereo not drawn) [Example 24, 1-{3,4-bis[(9Z,12Z)-octadeca-9,12-dienyloxy]butyl}pyrrolidine]",% Encapsulation Efficiency,[1]; in vivo formulation A: Cationic lipid/Example 73/DSPC/Chol 45/10/15/30 wt %,96.6%
same,% Encapsulation Efficiency,[1]; in vivo formulation B: Cationic lipid/PEG-cholesterol/DSPC/Chol 45/10/15/30 wt %,89.3%
same,% Encapsulation Efficiency,[1]; in vivo formulation C: Cationic lipid/Pal-PEG-Cera/DSPC/Chol 45/10/15/30 wt %,97.8%
same,% Encapsulation Efficiency,[1]; in vivo formulation D: Cationic lipid/Example 66/DSPC/Chol 45/10/15/30 wt %,97.0%
same,% Encapsulation Efficiency,[1]; in vivo formulation E: Cationic lipid/Example 53/DSPC/Chol 45/10/15/30 wt %,79.3%
same,% Encapsulation Efficiency,[1]; in vivo formulation F: Cationic lipid/Example 54/DSPC/Chol 45/10/15/30 wt %,96.1%
same,% Encapsulation Efficiency,[1]; in vivo formulation G: Cationic lipid/Example 55/DSPC/Chol 45/10/15/30 wt %,96.7%
same,% Encapsulation Efficiency,[1]; in vivo formulation H: Cationic lipid/PEG-DMPE/DSPC/Chol 45/10/15/30 wt %,97.3%
same,% Encapsulation Efficiency,[1]; in vivo formulation I: Cationic lipid/PEG-DPPE/DSPC/Chol 45/10/15/30 wt %,92%
same,% Encapsulation Efficiency,[1]; in vivo formulation J: Cationic lipid/PEG-DSPE/DSPC/Chol 45/10/15/30 wt %,100%
same,% Encapsulation Efficiency,[1]; in vivo formulation K: Cationic lipid/PEG-DMG/DSPC/Chol 45/10/15/30 wt %,99.5%
same,% Encapsulation Efficiency,[1]; in vivo formulation L: Cationic lipid/PEG-DPG/DSPC/Chol 45/10/15/30 wt %,90%
same,% Encapsulation Efficiency,[1]; in vivo formulation M: Cationic lipid/PEG-DSG/DSPC/Chol 45/10/15/30 wt %,100%
same,% Encapsulation Efficiency,[1]; in vivo formulation NN: Cationic lipid/Example 74/DSPC/Chol 45/10/15/30 wt %,97.3%
same,% Encapsulation Efficiency,[1]; in vivo formulation OO: Cationic lipid/Example 75/DSPC/Chol 45/10/15/30 wt %,99.5%
same,% Encapsulation Efficiency,[1]; in vivo formulation P: Cationic lipid/PEG-DSPE/DOPE/Chol 45/10/15/30 wt %,97%
same,% Encapsulation Efficiency,[1]; in vivo formulation PP: Cationic lipid/Example 73/Chol 45/10/45 wt %,97.4%
same,% Encapsulation Efficiency,[1]; in vivo formulation Q: Cationic lipid/PEG-DSPE/DOPC/Chol 45/10/15/30 wt %,97%
same,% Encapsulation Efficiency,[1]; in vivo formulation R: Cationic lipid/PEG-DSPE/SPC/Chol 45/10/15/30 wt %,97%
same,Size,[2],135.4 nm
same,% Encapsulation Efficiency,[3],97.0%
